This is an account of results in ChEMBL document CHEMBL4483862, “Open-source discovery of chemical leads for next-generation chemoprotective antimalarials” (2018).

The term IC50 denotes the midpoint of a concentration-inhibition curve. Usually IC90 stands for the point of the concentration-response curve where the effect stands at 90%.

SMILES strings stand for the structures.

This experiment concerns Plasmodium berghei. Put plainly: Luciferase/luciferin-expressing antifolate-resistant parasites were used to infect a culture of HepG2 cells that were pre-incubated with compounds. Infected hepatocytes emit light due to the luciferase reaction. Assay results are presented as the percent inhibition of light emission compared to control. […]. The following applies: sporozoite; for IC50: read-out: LUCIFERASE INFECTION ASSAY - IC50; for IC90: read-out: LUCIFERASE INFECTION ASSAY - IC90. The format is functional.

As for `COc1ccc(Cc2nnc(S)n2NC(=O)Nc2ccc(Cl)c(Cl)c2)cc1`, the IC50 was greater than 10 µM and the IC90 is greater than 10 µM.
As to `Cc1c(Cl)cn2c(=O)cc(CN3CCN(c4ccccc4)CC3)nc2c1Cl`, the IC50 was greater than 10 µM and the IC90 is greater than 10 µM.
Consider `Cc1cc(C)c(-c2csc(NC(=O)c3nnc(O)c4ccccc34)n2)c(C)c1`, for which the IC50 worked out at 3.82 µM and the 90% effect concentration (IC90) worked out at 5.46 µM.
In the same order, the values of `O=C1Nc2ccc([N+](=O)[O-])cc2C12NNc1ccccc1O2` (stereo not drawn) are greater than 10 µM and greater than 10 µM.
As for `CCOC(=O)C1=C(NC(=O)Nc2ccc(Cl)c(Cl)c2)Nc2ccccc2N=C1CC`, the IC50 is greater than 10 µM and the IC90 is greater than 10 µM.
As for `C=CCn1c(SCc2cc([N+](=O)[O-])cc3c2OCOC3)nc2cc(C(=O)O)ccc2c1=O`, the IC50 stood at 1.82 µM and the IC90 worked out at 6.97 µM.
Take `CN(C)c1nc(C=C(C#N)C#N)c(Cl)n1-c1ccc(F)cc1`: the IC50 was greater than 10 µM and the IC90 is greater than 10 µM.
Take `O=C(Nc1nnc(C2CC2)s1)c1cccc(S(=O)(=O)N2CCc3ccccc32)c1`: the IC50 was greater than 10 µM and the IC90 was greater than 10 µM.
For `CN1/C(=C\C(=O)C[n+]2ccc3ccccc3c2)C(C)(C)c2ccccc21`, the IC50 worked out at 1.05 µM and the IC90 was 1.83 µM.
As to `CCOC(=O)c1c(-c2ccccc2)csc1NC(=O)Cn1ncc(Cl)c(Cl)c1=O`, the IC50 is 3.35 µM and the IC90 came to 4.1 µM.
On to `Cc1ccc(-n2c(SCc3nc4ccccc4c(=O)o3)nnc2-c2ccccc2)cc1C`, for which the IC50 was greater than 10 µM and the concentration for an effect of 90% (IC90) was greater than 10 µM.
Consider `Cc1cc(C)c(C)c(S)c1C`, for which the IC50 is greater than 10 µM and the IC90 was greater than 10 µM.
For `Cn1c(N)c(C(=O)COC(=O)c2cc(-c3ccccc3)nc3ccc(Br)cc23)c(=O)n(C)c1=O`, the IC50 was greater than 10 µM and the 90% effect concentration (IC90) was greater than 10 µM.
As to `Cc1c(-c2cc(-c3ccc(Cl)cc3)nc3ccccc23)oc2ccc(F)cc2c1=O`, the IC50 was greater than 10 µM and the IC90 was greater than 10 µM.
For `Cc1nn(Cc2ccccc2Cl)c(Cl)c1/C=C/C(=O)OC(C)C(=O)N1CCCc2ccccc21` (stereo not drawn), the IC50 is greater than 10 µM and the IC90 is greater than 10 µM.
For the compound `Cc1sc(NC(=O)Cc2coc3cc4c(cc23)CCC4)nc1-c1ccc(Cl)cc1`, the half-maximal inhibitory concentration (IC50) was greater than 10 µM and the IC90 is greater than 10 µM.
In the case of `O=C(/C=C/c1cccc(NC(=O)c2ccccc2Cl)c1)c1ccc2c(c1)-c1ccccc1C2`, the IC50 is greater than 10 µM and the IC90 was greater than 10 µM.
For `CC(C)[C@H](NC(=O)c1ccc(C(C)(C)C)cc1)C(=O)Nc1nc2ccccc2[nH]1`, the IC50 was greater than 10 µM and the IC90 was greater than 10 µM.
As to `Cc1ccc2cc(COC(=O)c3cc4c(s3)CCC(C)C4)c(Cl)nc2c1` (stereo not drawn), the IC50 is greater than 10 µM and the IC90 was greater than 10 µM.
As for `Cc1ccc(-c2nnc(SCC(=O)N3N=C(c4ccc5ccccc5c4)CC3c3ccccc3)[nH]2)cc1` (stereo not drawn), the IC50 is greater than 10 µM and the IC90 is greater than 10 µM.
With `N#CC(C(=O)COC(=O)c1cn(-c2ccccc2)nc1-c1ccccc1)=C1Nc2ccccc2N1`, the IC50 was greater than 10 µM and the IC90 is greater than 10 µM.
On to `COc1ccc(-n2c(C)cc(C(=O)COC(=O)[C@@H](NS(=O)(=O)c3ccc4c(c3)OCCO4)C(C)C)c2C)cc1`, for which the IC50 was greater than 10 µM and the IC90 is greater than 10 µM.
Regarding `COC(=O)c1sc(NC(=O)COC(=O)C2Cc3ccccc3CN2S(=O)(=O)c2cccs2)c(C(=O)OC)c1C` (stereo not drawn), the IC50 was greater than 10 µM and the IC90 was greater than 10 µM.
`Cc1cc(NC(=O)CSc2ncc(-c3ccc(Cl)cc3)n2-c2ccccc2C)no1`: the half-inhibitory concentration (IC50) was 9.42 µM and the IC90 was greater than 10 µM.
`CCOc1ccc(-n2c(SCC(=O)c3c(N)n(C)c(=O)n(C)c3=O)nnc2-c2ccccc2Cl)cc1`: the IC50 was 3.28 µM and the 90% effect concentration (IC90) is 3.67 µM.
Regarding `Cc1nn(-c2ccc(F)cc2)c(C)c1/C=C/C(=O)OCC(=O)Nc1cc(S(=O)(=O)N2CCOCC2)ccc1Cl`, the IC50 was greater than 10 µM and the IC90 is greater than 10 µM.
As to `CCCCN1C(=O)c2ccc(C(=O)C(C#N)c3nc4ccccc4[nH]3)cc2C1=O` (stereo not drawn), the IC50 is greater than 10 µM and the IC90 was greater than 10 µM.
In the case of `Cc1cnc(NC(=O)c2ccc(Cl)c(S(=O)(=O)N(Cc3ccccc3)c3ccccc3Cl)c2)s1`, the IC50 was greater than 10 µM and the IC90 was greater than 10 µM.
As to `CCOC(=O)c1c(C)[nH]c(C(=O)COC(=O)c2nc(-c3ccccc3)n(-c3ccccc3)n2)c1C`, the half-inhibitory concentration (IC50) was greater than 10 µM and the IC90 was greater than 10 µM.
As for `O=C(NC1CCCc2ccccc21)c1oc2ccccc2c1CSc1nccs1` (stereo not drawn), the IC50 amounted to 6.48 µM and the IC90 was greater than 10 µM.
For the compound `O=C(COC(=O)/C=C/c1cn(-c2ccccc2)nc1-c1ccc(Cl)cc1)NC(=O)NC1CCCC1`, the concentration for half-maximal inhibition (IC50) is 9.03 µM and the 90% effect concentration (IC90) is greater than 10 µM.
As to `Cc1noc(C)c1COc1ccc(C(=O)OCC(=O)NC(C)C23CC4CC(CC(C4)C2)C3)cc1` (stereo not drawn), the IC50 is greater than 10 µM and the IC90 is greater than 10 µM.
Turning to `COc1ccc(NC(=O)C2C(=S)NC(=N)C(C#N)C2c2ccc(Cl)cc2)cc1` (stereo not drawn), the IC50 is greater than 10 µM and the IC90 was greater than 10 µM.
Turning to `COc1ccc(-n2c(C)cc(/C=C(\C#N)C(=O)OCC(=O)Nc3ccc(Cl)c(C(F)(F)F)c3)c2C)cc1`, the IC50 is greater than 10 µM and the IC90 is greater than 10 µM.
As to `Cn1c(N)c(C(=O)COC(=O)c2oc3ccccc3c2CSC2CCCCC2)c(=O)n(C)c1=O`, the IC50 was greater than 10 µM and the IC90 was greater than 10 µM.
As for `CC(C)c1nnc(SCC(=O)Nc2ccc([N+](=O)[O-])cc2)[nH]1`, the IC50 was greater than 10 µM and the IC90 is greater than 10 µM.
`CC1CCc2nc3ccccc3c(C(=O)OC(C)C(=O)NCCC3=CCCCC3)c2C1` (stereo not drawn): the IC50 is greater than 10 µM and the IC90 was greater than 10 µM.
As for `CN(CC(=O)Nc1ccc(Cl)c(C(F)(F)F)c1)Cc1ccc(O)c2ncccc12`, the IC50 amounted to 0.0645 µM and the IC90 is 0.191 µM.
In the same order, the values of `CCn1c(C)nc2cc(C(=O)NNC(=O)c3cc(=O)[nH]c4ccccc34)ccc21` are greater than 10 µM and greater than 10 µM.
As to `C=CCN(c1ccccc1)S(=O)(=O)c1cc(C(=O)NCc2ccc3c(c2)OCO3)ccc1Cl`, the IC50 was greater than 10 µM and the IC90 is greater than 10 µM.
For the compound `Cc1n[nH]c(=S)n1C1CCCCC1`, the IC50 was greater than 10 µM and the IC90 was greater than 10 µM.
On to `CCOC(=O)C1=C(CSc2nc(-c3ccc(C)cc3)c(-c3ccc(C)cc3)[nH]2)NC(=O)NC1C` (stereo not drawn), for which the IC50 is greater than 10 µM and the IC90 is greater than 10 µM.
For the compound `Cc1ccc(N(CCC#N)C(=O)COC(=O)c2c3c(nc4ccccc24)/C(=C/c2c(F)cccc2Cl)CC3)cc1`, the IC50 was greater than 10 µM and the IC90 was greater than 10 µM.
As to `Cc1nnnn1/C(=C\c1ccccc1)C(=O)OCCOc1ccccc1Cl`, the IC50 was greater than 10 µM and the IC90 was greater than 10 µM.
Regarding `Cc1c(-c2ccccc2)nc2ccccc2c1C(=O)OCC(=O)c1cc(C)n(Cc2ccco2)c1C`, the IC50 was greater than 10 µM and the IC90 is greater than 10 µM.
As for `COc1ccc(/C=C(\C#N)c2n[nH]c(=O)c3ccccc23)cc1`, the IC50 was determined as 4.17 µM and the IC90 was greater than 10 µM.
As to `CCCCn1c(SCC(=O)Nc2cc(C(F)(F)F)ccc2N2CCOCC2)nc2ccccc21`, the IC50 was greater than 10 µM and the IC90 is greater than 10 µM.
On to `CC(C)(c1ccccc1)c1ccc(OCC(O)CNCCSc2ccc(Br)cc2)cc1` (stereo not drawn), for which the IC50 is greater than 10 µM and the IC90 is greater than 10 µM.
With `CC(=O)c1c(C)[nH]c(C(=O)OC(c2ccccc2)c2ccc(Cl)cc2)c1C` (stereo not drawn), the IC50 was greater than 10 µM and the IC90 was greater than 10 µM.
As to `CC(C)c1nc(-c2c(N)n(Cc3ccccc3)c(=O)n(C)c2=O)sc1C(=O)c1cc(F)ccc1F`, the IC50 worked out at 9.55 µM and the IC90 was greater than 10 µM.
Regarding `Cc1ccc(S(=O)(=O)N(C)Cc2ccc(-c3nnc4n3-c3ccccc3SC4)cc2)cc1`, the IC50 was 3.08 µM and the IC90 is greater than 10 µM.
Regarding `CCN(c1ccccc1)S(=O)(=O)c1ccc(C(=O)N2CCN(c3cccc(C)c3C)CC2)cc1`, the IC50 turned out to be 4.15 µM and the IC90 was 5.07 µM.
For `COc1ccc(-c2csc(NC(=O)c3cc4cc5ccc(OC)cc5nc4s3)n2)cc1`, the IC50 is greater than 10 µM and the IC90 is greater than 10 µM.
Regarding `CC1CCc2c(sc3nc(CN4CCOCC4)nc(N4CCN(S(=O)(=O)/C=C/c5ccccc5)CC4)c23)C1` (stereo not drawn), the IC50 was greater than 10 µM and the IC90 was greater than 10 µM.
`O=C(O)C1CC=CCC1C(=O)NN=c1nc[nH]c2ccccc12` (stereo not drawn): the IC50 is greater than 10 µM and the 90% effect concentration (IC90) is greater than 10 µM.
Regarding `O=C(CCN1c2ccccc2Sc2ccccc21)N1CCCS/C1=N\c1ccccc1`, the half-inhibitory concentration (IC50) was greater than 10 µM and the IC90 is greater than 10 µM.
Turning to `CSc1ccc(/C=C2\SC(=O)N(CCNC(=O)c3nc4nccc(C)n4n3)C2=O)cc1`, the IC50 is greater than 10 µM and the concentration for an effect of 90% (IC90) was greater than 10 µM.
Regarding `Cc1ccc(C(C)C)c(OCc2ccc(C(=O)N/N=C/c3cc(C)n(Cc4ccco4)c3C)cc2)c1`, the 50% inhibitory concentration (IC50) was greater than 10 µM and the IC90 was greater than 10 µM.
In the case of `CCCCn1nc(C(=O)Nc2cc(S(=O)(=O)N(CC)CC)ccc2N2CCOCC2)c2ccccc2c1=O`, the IC50 is greater than 10 µM and the IC90 was greater than 10 µM.
For `CCNC(=S)N/N=C1\C(=O)Nc2ccc(C(C)C)cc21`, the IC50 worked out at 4.21 µM and the IC90 is 7.94 µM.
In the case of `COc1ccc(-c2nnc(SCC(=O)c3[nH]c(C)c(C(C)=O)c3C)n2C2CCCCC2C)cc1` (stereo not drawn), the IC50 is greater than 10 µM and the IC90 is greater than 10 µM.
For `OC(CNC1CCCc2ccccc21)COC(c1ccc(F)cc1)c1ccc(F)cc1` (stereo not drawn), the IC50 was greater than 10 µM and the IC90 is greater than 10 µM.
Regarding `C[C@@H](C(=O)NNC(=O)c1cccc(S(=O)(=O)N2CCOCC2)c1)N1C(=O)C2CC=CCC2C1=O` (stereo partly drawn), the IC50 was greater than 10 µM and the IC90 is greater than 10 µM.
For `COc1ccc(S(=O)(=O)N(C)C)cc1NC(=O)CSc1cc(C)c2ccccc2n1`, the half-inhibitory concentration (IC50) was greater than 10 µM and the IC90 was greater than 10 µM.
